# Data: paper PMC11167047 (Cell Death Discovery, 2024)
# Assays:
# Assay in all cases: kinome screen (33PanQinase)
# Assay type in all cases: biochemical
# [1] = target: T1, ROS (Homo sapiens, UniProt P08922)
# T1 construct: purchased Reaction Biology Europe GmbH (formerly ProQinase)
# Protocol: (§1) The Kinome Screening was performed by Reaction Biology Europe GmbH (http://reactionbiology.com; Freiburg i. Br., Germany).
# [2] = target: T2, CDK4/CycD3 (Homo sapiens, UniProt P11802)
# T2 construct: purchased Reaction Biology Europe GmbH (formerly ProQinase)
# T2 sequence (P11802 whole entry): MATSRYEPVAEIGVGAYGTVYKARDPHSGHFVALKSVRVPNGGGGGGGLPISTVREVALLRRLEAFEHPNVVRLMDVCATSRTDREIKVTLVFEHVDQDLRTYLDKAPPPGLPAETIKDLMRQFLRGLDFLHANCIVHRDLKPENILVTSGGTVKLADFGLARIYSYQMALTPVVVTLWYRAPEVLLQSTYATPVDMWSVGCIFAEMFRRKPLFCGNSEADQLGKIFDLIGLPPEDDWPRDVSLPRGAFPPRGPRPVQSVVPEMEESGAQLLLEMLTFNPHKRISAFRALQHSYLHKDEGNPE
# T2 sequence (P30281 whole entry partner): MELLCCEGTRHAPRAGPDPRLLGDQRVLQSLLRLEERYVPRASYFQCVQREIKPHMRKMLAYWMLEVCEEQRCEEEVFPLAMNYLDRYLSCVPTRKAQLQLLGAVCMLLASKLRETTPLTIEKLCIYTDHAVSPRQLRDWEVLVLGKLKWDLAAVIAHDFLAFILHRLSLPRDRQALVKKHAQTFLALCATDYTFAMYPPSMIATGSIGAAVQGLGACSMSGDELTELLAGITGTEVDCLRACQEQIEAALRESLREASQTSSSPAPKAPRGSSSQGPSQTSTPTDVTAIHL
# Protocol: as §1
# [3] = target: T3, VRK2 (Homo sapiens, UniProt Q86Y07)
# T3 construct: purchased Reaction Biology Europe GmbH (formerly ProQinase)
# T3 sequence (Q86Y07 whole entry): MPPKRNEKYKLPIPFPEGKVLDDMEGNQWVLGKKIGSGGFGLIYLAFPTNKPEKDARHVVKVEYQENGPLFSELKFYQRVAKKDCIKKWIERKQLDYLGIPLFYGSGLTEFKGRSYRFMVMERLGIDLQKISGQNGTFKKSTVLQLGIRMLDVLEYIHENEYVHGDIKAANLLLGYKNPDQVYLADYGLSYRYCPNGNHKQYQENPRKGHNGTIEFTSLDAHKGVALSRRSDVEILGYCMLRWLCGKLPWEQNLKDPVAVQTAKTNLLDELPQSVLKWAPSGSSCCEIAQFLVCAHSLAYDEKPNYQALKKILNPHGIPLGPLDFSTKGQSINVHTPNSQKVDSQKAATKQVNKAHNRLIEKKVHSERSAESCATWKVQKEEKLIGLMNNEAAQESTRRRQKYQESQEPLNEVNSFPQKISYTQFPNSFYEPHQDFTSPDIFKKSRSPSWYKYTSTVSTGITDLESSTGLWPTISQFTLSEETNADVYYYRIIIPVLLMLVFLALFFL
# Protocol: as §1
# [4] = target: T4, MARK4 (Homo sapiens, UniProt Q96L34)
# T4 construct: purchased Reaction Biology Europe GmbH (formerly ProQinase)
# T4 sequence (Q96L34 1-752): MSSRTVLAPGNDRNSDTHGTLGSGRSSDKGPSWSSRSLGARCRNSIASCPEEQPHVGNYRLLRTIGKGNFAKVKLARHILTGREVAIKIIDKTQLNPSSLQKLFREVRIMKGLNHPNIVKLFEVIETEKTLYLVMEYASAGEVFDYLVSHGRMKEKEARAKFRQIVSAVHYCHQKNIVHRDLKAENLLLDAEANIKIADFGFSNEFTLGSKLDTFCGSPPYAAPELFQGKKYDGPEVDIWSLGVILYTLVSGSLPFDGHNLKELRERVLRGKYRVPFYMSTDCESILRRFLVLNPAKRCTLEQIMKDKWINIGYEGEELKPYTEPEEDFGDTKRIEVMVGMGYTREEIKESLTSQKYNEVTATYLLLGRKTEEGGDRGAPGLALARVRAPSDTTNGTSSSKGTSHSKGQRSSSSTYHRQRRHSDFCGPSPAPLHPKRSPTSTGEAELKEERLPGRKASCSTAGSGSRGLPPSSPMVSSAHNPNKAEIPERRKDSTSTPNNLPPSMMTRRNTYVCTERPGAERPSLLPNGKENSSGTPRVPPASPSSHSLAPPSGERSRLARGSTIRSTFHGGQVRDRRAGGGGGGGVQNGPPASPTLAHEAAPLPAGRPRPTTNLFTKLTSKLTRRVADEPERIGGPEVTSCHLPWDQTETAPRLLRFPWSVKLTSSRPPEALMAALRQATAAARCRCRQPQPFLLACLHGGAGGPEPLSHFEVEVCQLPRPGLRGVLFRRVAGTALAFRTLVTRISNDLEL
# Protocol: as §1
# [5] = target: T5, TIE2 (Homo sapiens, UniProt Q02763)
# T5 construct: purchased Reaction Biology Europe GmbH (formerly ProQinase)
# T5 sequence (Q02763 23-1124): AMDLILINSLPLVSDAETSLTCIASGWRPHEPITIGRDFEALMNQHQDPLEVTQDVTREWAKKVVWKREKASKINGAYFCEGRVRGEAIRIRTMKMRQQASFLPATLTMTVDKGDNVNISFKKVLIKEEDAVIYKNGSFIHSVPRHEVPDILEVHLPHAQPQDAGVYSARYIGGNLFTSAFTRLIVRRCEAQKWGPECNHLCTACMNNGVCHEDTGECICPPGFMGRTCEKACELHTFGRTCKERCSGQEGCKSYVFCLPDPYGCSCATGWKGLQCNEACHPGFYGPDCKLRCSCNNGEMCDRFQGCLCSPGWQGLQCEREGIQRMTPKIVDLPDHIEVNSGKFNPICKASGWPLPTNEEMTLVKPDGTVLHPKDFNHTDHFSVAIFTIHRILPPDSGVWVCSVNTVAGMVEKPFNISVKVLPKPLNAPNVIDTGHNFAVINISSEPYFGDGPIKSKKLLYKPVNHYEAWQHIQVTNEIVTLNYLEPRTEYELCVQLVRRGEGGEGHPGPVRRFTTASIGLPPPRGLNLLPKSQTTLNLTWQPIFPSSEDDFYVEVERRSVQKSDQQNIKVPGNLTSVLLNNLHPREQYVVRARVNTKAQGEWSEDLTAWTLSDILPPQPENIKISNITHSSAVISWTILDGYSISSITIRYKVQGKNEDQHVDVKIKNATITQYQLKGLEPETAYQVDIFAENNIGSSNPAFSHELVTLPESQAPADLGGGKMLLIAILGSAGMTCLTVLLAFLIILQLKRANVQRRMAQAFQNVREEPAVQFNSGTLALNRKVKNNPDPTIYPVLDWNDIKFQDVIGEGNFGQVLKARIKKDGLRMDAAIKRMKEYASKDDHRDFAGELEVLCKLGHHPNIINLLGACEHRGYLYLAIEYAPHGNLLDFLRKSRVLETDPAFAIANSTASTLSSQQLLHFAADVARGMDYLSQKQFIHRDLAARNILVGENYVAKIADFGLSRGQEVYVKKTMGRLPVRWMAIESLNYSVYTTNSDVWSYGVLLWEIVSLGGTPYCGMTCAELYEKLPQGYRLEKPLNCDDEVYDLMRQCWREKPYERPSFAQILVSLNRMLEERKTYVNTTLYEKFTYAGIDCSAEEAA
# Protocol: as §1
# [6] = target: T6, CDC42BPA (Homo sapiens, UniProt Q5VT25)
# T6 construct: purchased Reaction Biology Europe GmbH (formerly ProQinase)
# Protocol: as §1
# [7] = target: T7, PIM3 (Homo sapiens, UniProt Q86V86)
# T7 construct: purchased Reaction Biology Europe GmbH (formerly ProQinase)
# Protocol: as §1
# [8] = target: T8, PIM2 (Homo sapiens, UniProt Q9P1W9)
# T8 construct: purchased Reaction Biology Europe GmbH (formerly ProQinase)
# Protocol: as §1
# [9] = target: T9, MKK6 SDTD (Homo sapiens, UniProt P52564, S207D/T211D)
# T9 construct: purchased Reaction Biology Europe GmbH (formerly ProQinase)
# T9 sequence (P52564 1-334 S207D/T211D): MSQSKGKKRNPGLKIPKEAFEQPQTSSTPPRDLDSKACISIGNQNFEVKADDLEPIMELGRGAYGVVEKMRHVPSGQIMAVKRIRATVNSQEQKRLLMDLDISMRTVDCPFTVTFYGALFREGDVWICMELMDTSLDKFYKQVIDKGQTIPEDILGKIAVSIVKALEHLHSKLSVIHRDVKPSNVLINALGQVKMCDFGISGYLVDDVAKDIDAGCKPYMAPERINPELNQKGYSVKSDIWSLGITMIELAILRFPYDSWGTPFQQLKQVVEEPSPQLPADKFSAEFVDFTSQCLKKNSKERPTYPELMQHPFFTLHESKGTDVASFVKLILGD
# Protocol: as §1
# [10] = target: T10, CLK1 (Homo sapiens, UniProt P49759)
# T10 construct: purchased Reaction Biology Europe GmbH (formerly ProQinase)
# Protocol: as §1
# [11] = target: T11, BMPR1B (Homo sapiens, UniProt O00238)
# T11 construct: purchased Reaction Biology Europe GmbH (formerly ProQinase)
# T11 sequence (O00238 14-502): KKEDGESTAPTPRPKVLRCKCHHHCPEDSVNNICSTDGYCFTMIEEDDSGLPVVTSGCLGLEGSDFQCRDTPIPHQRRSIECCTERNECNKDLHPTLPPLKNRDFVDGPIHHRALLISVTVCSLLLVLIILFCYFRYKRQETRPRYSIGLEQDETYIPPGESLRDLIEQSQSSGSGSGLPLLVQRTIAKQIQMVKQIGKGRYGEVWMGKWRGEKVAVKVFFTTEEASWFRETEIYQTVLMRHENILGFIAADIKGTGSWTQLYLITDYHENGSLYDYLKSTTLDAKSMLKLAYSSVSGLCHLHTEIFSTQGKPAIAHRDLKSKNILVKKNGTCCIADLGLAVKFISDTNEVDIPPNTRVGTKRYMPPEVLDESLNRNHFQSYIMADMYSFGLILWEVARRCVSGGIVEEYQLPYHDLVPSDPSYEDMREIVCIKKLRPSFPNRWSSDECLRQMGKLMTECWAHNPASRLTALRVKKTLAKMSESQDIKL
# Protocol: as §1
# [12] = target: T12, CDC7/DBF4 (Homo sapiens, UniProt O00311)
# T12 construct: purchased Reaction Biology Europe GmbH (formerly ProQinase)
# Protocol: as §1
# [13] = target: T13, IRAK4 (Homo sapiens, UniProt Q9NWZ3)
# T13 construct: purchased Reaction Biology Europe GmbH (formerly ProQinase)
# T13 sequence (Q9NWZ3 1-460): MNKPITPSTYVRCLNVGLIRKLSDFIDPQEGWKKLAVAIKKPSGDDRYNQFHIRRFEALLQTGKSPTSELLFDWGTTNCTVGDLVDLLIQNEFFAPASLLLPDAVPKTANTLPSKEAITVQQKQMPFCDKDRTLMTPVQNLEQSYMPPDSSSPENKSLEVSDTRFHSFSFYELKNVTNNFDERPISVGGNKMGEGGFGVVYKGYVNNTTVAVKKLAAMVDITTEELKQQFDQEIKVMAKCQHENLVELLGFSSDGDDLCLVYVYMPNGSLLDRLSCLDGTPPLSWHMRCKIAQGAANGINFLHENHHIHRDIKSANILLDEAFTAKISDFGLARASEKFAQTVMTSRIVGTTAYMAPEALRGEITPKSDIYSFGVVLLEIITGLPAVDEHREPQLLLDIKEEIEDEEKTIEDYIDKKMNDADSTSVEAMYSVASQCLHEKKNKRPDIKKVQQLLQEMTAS
# Protocol: as §1
# T1 sequence (P08922 28-2347): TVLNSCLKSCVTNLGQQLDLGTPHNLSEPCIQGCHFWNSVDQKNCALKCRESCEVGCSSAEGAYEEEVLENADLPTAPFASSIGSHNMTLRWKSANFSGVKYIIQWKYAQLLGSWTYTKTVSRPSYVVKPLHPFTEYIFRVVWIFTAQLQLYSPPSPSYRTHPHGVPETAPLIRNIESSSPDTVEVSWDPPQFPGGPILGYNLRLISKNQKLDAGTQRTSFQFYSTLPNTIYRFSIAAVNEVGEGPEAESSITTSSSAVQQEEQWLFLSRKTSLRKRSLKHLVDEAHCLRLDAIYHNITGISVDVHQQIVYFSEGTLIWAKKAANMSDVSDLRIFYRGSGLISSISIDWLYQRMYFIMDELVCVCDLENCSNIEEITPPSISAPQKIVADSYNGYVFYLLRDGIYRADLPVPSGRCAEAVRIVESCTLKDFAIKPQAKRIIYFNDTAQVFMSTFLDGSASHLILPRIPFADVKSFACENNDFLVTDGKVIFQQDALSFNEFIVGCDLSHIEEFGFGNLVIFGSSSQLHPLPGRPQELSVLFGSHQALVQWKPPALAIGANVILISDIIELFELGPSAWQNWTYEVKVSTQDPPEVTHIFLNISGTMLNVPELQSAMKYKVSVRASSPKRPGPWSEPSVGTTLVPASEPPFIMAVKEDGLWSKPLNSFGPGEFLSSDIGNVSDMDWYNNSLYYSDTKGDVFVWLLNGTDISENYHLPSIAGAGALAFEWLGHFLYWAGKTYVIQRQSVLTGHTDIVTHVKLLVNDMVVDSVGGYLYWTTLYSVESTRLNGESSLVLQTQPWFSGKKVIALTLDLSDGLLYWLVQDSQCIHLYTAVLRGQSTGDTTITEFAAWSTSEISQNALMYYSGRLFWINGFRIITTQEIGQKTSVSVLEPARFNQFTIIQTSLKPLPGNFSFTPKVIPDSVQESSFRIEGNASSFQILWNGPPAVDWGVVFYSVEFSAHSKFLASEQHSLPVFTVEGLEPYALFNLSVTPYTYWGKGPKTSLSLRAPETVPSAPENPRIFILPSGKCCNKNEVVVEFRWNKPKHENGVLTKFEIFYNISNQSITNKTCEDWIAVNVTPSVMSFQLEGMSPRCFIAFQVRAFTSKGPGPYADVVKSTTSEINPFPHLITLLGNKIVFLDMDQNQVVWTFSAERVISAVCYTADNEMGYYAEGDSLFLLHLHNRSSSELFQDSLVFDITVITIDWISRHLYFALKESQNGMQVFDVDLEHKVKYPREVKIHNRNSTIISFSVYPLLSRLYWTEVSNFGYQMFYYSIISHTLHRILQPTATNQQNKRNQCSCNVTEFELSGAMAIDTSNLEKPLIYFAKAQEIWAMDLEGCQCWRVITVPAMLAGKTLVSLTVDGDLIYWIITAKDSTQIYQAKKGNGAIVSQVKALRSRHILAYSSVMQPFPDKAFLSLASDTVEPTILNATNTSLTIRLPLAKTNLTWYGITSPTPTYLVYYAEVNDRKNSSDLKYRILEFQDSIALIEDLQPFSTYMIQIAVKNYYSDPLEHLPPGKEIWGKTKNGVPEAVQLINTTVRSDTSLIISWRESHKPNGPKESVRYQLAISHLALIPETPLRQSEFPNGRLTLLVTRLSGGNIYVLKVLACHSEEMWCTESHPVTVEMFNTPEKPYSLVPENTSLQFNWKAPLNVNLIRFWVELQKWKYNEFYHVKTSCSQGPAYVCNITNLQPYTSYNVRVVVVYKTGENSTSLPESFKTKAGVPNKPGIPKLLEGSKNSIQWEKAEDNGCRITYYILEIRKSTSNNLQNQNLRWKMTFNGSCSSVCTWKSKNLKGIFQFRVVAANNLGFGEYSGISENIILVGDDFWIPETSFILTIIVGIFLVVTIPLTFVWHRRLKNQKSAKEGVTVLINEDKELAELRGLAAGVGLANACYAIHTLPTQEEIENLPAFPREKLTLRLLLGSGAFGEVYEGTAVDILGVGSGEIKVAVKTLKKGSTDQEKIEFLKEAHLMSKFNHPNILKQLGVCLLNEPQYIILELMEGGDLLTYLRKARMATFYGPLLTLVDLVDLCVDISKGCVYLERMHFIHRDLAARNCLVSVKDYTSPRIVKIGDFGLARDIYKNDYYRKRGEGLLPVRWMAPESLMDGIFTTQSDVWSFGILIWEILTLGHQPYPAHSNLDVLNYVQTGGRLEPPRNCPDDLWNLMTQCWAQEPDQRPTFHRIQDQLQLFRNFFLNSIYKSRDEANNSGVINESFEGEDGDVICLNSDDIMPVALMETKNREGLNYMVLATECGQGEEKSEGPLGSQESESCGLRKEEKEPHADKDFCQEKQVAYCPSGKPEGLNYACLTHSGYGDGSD
Structure (SMILES),residual kinase activity ([1]; 0.3 µM),residual kinase activity ([2]; 0.3 µM),residual kinase activity ([3]; 0.3 µM),residual kinase activity ([4]; 0.3 µM),residual kinase activity ([5]; 0.3 µM),residual kinase activity ([6]; 0.3 µM),residual kinase activity ([7]; 0.3 µM),residual kinase activity ([8]; 0.3 µM),residual kinase activity ([9]; 0.3 µM),residual kinase activity ([10]; 0.3 µM),residual kinase activity ([11]; 0.3 µM),residual kinase activity ([12]; 0.3 µM),residual kinase activity ([13]; 0.3 µM),also measured
COc1ccnc2[nH]cc(-c3cc(N)nc(N)c3)c12 [meriolin 16],81 % of control,51 % of control,92 % of control,91 % of control,105 % of control,7 % of control,68 % of control,83 % of control,87 % of control,3 % of control,91 % of control,12 % of control,50 % of control,residual kinase activity ([1]; 0.03 µM): 92 % of control; residual kinase activity ([2]; 0.03 µM): 95 % of control; residual kinase activity ([3]; 0.03 µM): 103 % of control; residual kinase activity ([4]; 0.03 µM): 99 % of control; residual kinase activity ([5]; 0.03 µM): 132 % of control; residual kinase activity ([6]; 0.03 µM): 53 % of control; residual kinase activity ([7]; 0.03 µM): 118 % of control; residual kinase activity ([8]; 0.03 µM): 115 % of control; residual kinase activity ([9]; 0.03 µM): 77 % of control; residual kinase activity ([10]; 0.03 µM): 11 % of control; residual kinase activity ([11]; 0.03 µM): 91 % of control; residual kinase activity ([12]; 0.03 µM): 63 % of control; residual kinase activity ([13]; 0.03 µM): 83 % of control
c1ccc(CNc2cc(-c3c[nH]c4ncccc34)ccn2)cc1 [meriolin 36],26 % of control,34 % of control,93 % of control,90 % of control,113 % of control,1 % of control,85 % of control,119 % of control,63 % of control,4 % of control,75 % of control,10 % of control,14 % of control,residual kinase activity ([1]; 3 µM): 5 % of control; residual kinase activity ([2]; 3 µM): 6 % of control; residual kinase activity ([3]; 3 µM): 45 % of control; residual kinase activity ([4]; 3 µM): 54 % of control; residual kinase activity ([5]; 3 µM): 65 % of control; residual kinase activity ([6]; 3 µM): 1 % of control; residual kinase activity ([7]; 3 µM): 46 % of control; residual kinase activity ([8]; 3 µM): 90 % of control; residual kinase activity ([9]; 3 µM): 30 % of control; residual kinase activity ([10]; 3 µM): 2 % of control; residual kinase activity ([11]; 3 µM): 45 % of control; residual kinase activity ([12]; 3 µM): 2 % of control; residual kinase activity ([13]; 3 µM): 2 % of control
